Data reported in US6251900A, “Heterocyclic compounds and antitumor agent containing the same as active ingredient” (Zenyaku Kogyo Kabushiki Kaisha, priority 1997, dated 2001).

Test system: MCF-7 cells
Assay: Growth inhibition of MCF-7 human breast cancer cells, 72 h culture (Test 1)
Format: cell-based
Conditions: MCF7, 37° C., read-out: 50% Growth inhibition concentrations (GI50)
Procedure: Used in the test were MCF-7 cells which were established from human breast cancer and were cultured routinely under the conditions of 37° C. and 5% CO2, in RPMI 1640 medium supplemented with 10% fetal calf serum, HEPES buffer solution (25 mM) and kanamycin (0.1 mg/ml). Single cell suspension was prepared by adding trypsin/EDTA to the medium so as to be adjusted to 4.0×10^4 cells/ml. Test compounds were dissolved or suspended in DMSO or RPMI 1640 medium at a concentration of 1.0×10^-4 -1.0×10^-9 M.
The cell suspension and the sample solution or suspension were filled in a 96-wells microplate at a rate of 0.1 ml of the former and 0.1 ml of the latter per well and cultured at 37° C. for 72 hours in 5% CO2.
50% Growth inhibition concentrations (GI50 μM) were calculated from growth inhibitions at various sample concentrations.

SMILES	GI50
CC1CN(c2nc(N3CCOCC3)nc(-n3cnc4ccccc43)n2)CCO1 (centres unmarked) [compound 16, 2-(benzimidazol-1-yl)-4-(2-methylmorpholino)-6-morpholino-1,3,5-triazine]	4.8 µM
CCC1CN(c2nc(N3CCOCC3)nc(-n3cnc4ccccc43)n2)CCO1 (centres unmarked) [compound 12, 2-(benzimidazol-1-yl)-4-(2-ethylmorpholino)-6-morpholino-1,3,5-triazine]	3.9 µM
c1ccc2c(c1)ncn2-c1nc(N2CCOCC2)cc(N2CCSCC2)n1 [compound 23, 2-(benzimidazol-1-yl)-4-morpholino-6-thiomorpholino-pyrimidine]	3.9 µM
OC1CCCN(c2nc(N3CCOCC3)nc(-n3cnc4ccccc43)n2)C1 (centres unmarked) [compound 36, 2-(benzimidazol-1-yl)-4-(3-hydroxypiperidino)-6-morpholino-1,3,5-triazine]	3.9 µM
FC(F)(F)C1CN(c2nc(N3CCOCC3)nc(-n3cnc4ccccc43)n2)CCO1 (centres unmarked) [compound 6, 2-(benzimidazol-1-yl)-4-morpholino-6-(2-trifluoro-methylmorpholino)-1,3,5-triazine]	7.2 µM
CCN(CCN1CCOCC1)c1nc(N2CCOCC2)nc(-n2cnc3ccccc32)n1 [compound 49, 2-(benzimidazol-1-yl)-4-(N-ethyl-N-2-morpholinoethyl)amino-6-morpholino-1,3,5-triazine]	5 µM
FCC1CN(c2nc(N3CCOCC3)nc(-n3cnc4ccccc43)n2)CCO1 (centres unmarked) [compound 32, 2-(benzimidazol-1-yl)-4-(2-fluoromethylmorpholino)-6-morpholino-1,3,5-triazine]	3.9 µM
c1ccc2c(c1)ncn2-c1cc(-n2cnc3ccccc32)nc(N2CCOCC2)n1 [compound 46, 4,6-di(benzimidazol-1-yl)-2-morpholinopyrimidine]	4.3 µM
CC(=O)OC1CCN(c2nc(N3CCOCC3)nc(-n3cnc4ccccc43)n2)CC1 [compound 38, 2-(4-acetoxypiperidino)-4-(benzimidazol-1-yl)-6-morpholino-1,3,5-triazine]	6.5 µM
c1ccc2c(c1)ncn2-c1nc(N2CCOCC2)cc(N2CCOCC2)n1 [compound 43, 2-(benzimidazol-1-yl)-4,6-dimorpholinopyrimidine]	4.3 µM
CC(C)(C)OC(=O)NCC1CN(c2nc(N3CCOCC3)nc(-n3cnc4ccccc43)n2)CCO1 (centres unmarked) [compound 18, 2-(benzimidazol-1-yl)-4-[2-(tert-butoxycarbonylamino-methyl)morpholino]-6-morpholino-1,3,5-triazine]	6.3 µM

The next compounds have a lower GI50 than those just listed; values first:

GI50	SMILES
2.3 µM	C[C@H]1CN(c2nc(N3CCOCC3)nc(-n3cnc4ccccc43)n2)C[C@H](C)O1 (relative stereo) [compound 14, 2-(benzimidazol-1-yl)-4-(trans-2,6-dimethylmorpholino)-6-morpholino-1,3,5-triazine]
3.1 µM	c1ccc2c(c1)ncn2-c1cc(N2CCOCC2)nc(-n2cnc3ccccc32)n1 [compound 44, 2,4-di(benzimidazol-1-yl)-6-morpholinopyrimidine]
3.6 µM	Brc1c(N2CCOCC2)nc(-n2cnc3ccccc32)nc1N1CCOCC1 [compound 47, 2-(benzimidazol-1-yl)-5-bromo-4,6-dimorpholinopyrimidine]
1 µM	C[C@@H]1OCCN(c2nc(N3CCOCC3)nc(-n3cnc4ccccc43)n2)[C@@H]1C (relative stereo) [compound 7, 2-(benzimidazol-1-yl)-4-(cis-2,3-dimethylmorpholino)-6-morpholino-1,3,5-triazine]
3.7 µM	Cc1nc2ccccc2n1-c1nc(N2CCOCC2)nc(N2CCOCC2)n1 [compound 3, 2-(2-methylbenzimidazol-1-yl)-4,6-dimorpholino-1,3,5-triazine]
2.8 µM	C[C@H]1CN(c2cc(N3CCOCC3)nc(-n3cnc4ccccc43)n2)C[C@H](C)O1 (relative stereo) [compound 20, 2-(benzimidazol-1-yl)-4-(trans-2,6-dimethylmorpholino)-6-morpholinopyrimidine]
